According to ChEMBL document CHEMBL1201862, “PubChem BioAssay data set” (2004):
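Briefly, cells in 96-well plates were exposed to five compound concentrations for 48 h, and endpoints were estimated by linear interpolation. GI50 = concentration required for 50% inhibition of growth.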 Calls of active or inactive are those of the source. Cut-off read from the data, not from the text of the source: active = GI50 up to about 1.1 µM and inactive = higher.

Legend:
Assay in all cases: DTP human tumour cell line panel, 48 h
SK-MEL-28 = tested on: SK-MEL-28
SR = tested on: SR
UACC-257 = tested on: UACC-257
SN12C = tested on: SN12C
COLO 205 = tested on: COLO 205
UO-31 = tested on: UO-31
A498 = tested on: A498
UACC-62 = tested on: UACC-62
HT-29 = tested on: HT-29
SW-620 = tested on: SW-620
Malme-3M = tested on: Malme-3M
LOX IMVI = tested on: LOX IMVI
OVCAR-8 = tested on: OVCAR-8
NCI-H522 = tested on: NCI-H522
HCT-116 = tested on: HCT-116
MDA-MB-231 = tested on: MDA-MB-231
T47D = tested on: T47D
RPMI-8226 = tested on: RPMI-8226
HCT-15 = tested on: HCT-15

| SMILES | GI50 (SK-MEL-28) | GI50 (SR) | GI50 (UACC-257) | GI50 (SN12C) | GI50 (COLO 205) | GI50 (UO-31) | GI50 (A498) | GI50 (UACC-62) | GI50 (HT-29) | GI50 (SW-620) | GI50 (Malme-3M) | GI50 (LOX IMVI) | GI50 (OVCAR-8) | GI50 (NCI-H522) | GI50 (HCT-116) | GI50 (MDA-MB-231) | GI50 (T47D) | GI50 (RPMI-8226) | GI50 (HCT-15) [µM] |
| --- | --- | --- | --- | --- | --- | --- | --- | --- | --- | --- | --- | --- | --- | --- | --- | --- | --- | --- | --- |
| O=C1c2cc([N+](=O)[O-])sc2C(=O)c2cc([N+](=O)[O-])sc21 | 3.23 µM (inactive) | 0.268 µM (active) | 5.16 µM (inactive) | 2.8 µM (inactive) | 2.02 µM (inactive) | 3.19 µM (inactive) | 16.2 µM (inactive) | 1.87 µM (inactive) | 3.24 µM (inactive) | 1.72 µM (inactive) | 0.34 µM (active) | 1.36 µM (inactive) | 5.79 µM (inactive) | 1.44 µM (inactive) | 1.67 µM (inactive) | 2.07 µM (inactive) | 3.55 µM (inactive) | 0.535 µM (active) | 1.73 |
| COC(=O)CNC(=O)C(Cc1ccccc1)NC(=O)c1ccc(-c2ccc(Cl)cc2Cl)o1 (stereo not drawn) | 43.8 µM (inactive) | 14.9 µM (inactive) | 17.8 µM (inactive) | 26.3 µM (inactive) | 14.6 µM (inactive) | 52.6 µM (inactive) | 10.7 µM (inactive) | 13.6 µM (inactive) | 14.4 µM (inactive) | 34.2 µM (inactive) | 21.5 µM (inactive) | 23.5 µM (inactive) | 25.1 µM (inactive) | 13.4 µM (inactive) | 14.8 µM (inactive) | 19 µM (inactive) | 20.7 µM (inactive) | 12.3 µM (inactive) | 23.3 |
| Cc1ccc2[nH]c3c(c2c1)C1CCC(C(C)(C)C)CC1C1C(=O)N(c2ccc(Oc4ccccc4)cc2)C(=O)C31 (stereo not drawn) | > 58.7 µM (inactive) | 1.05 µM (active) | > 100 µM (inactive) | 10.4 µM (inactive) | 13.5 µM (inactive) | 41 µM (inactive) | 9.57 µM (inactive) | 47.1 µM (inactive) | > 79.6 µM (inactive) | 19.3 µM (inactive) | 12.3 µM (inactive) | 24.2 µM (inactive) | 8.73 µM (inactive) | 13.2 µM (inactive) | 18.5 µM (inactive) | 20.3 µM (inactive) | 16.2 µM (inactive) | 15.8 µM (inactive) | 56.8 |
| COc1ccc(NC2Oc3cc4c(cc3C(c3cccc(OC)c3OC)C2C)OCO4)cc1 (stereo not drawn) | 16.3 µM (inactive) | 2.04 µM (inactive) | 4.46 µM (inactive) | 6.19 µM (inactive) | 6.14 µM (inactive) | 5.85 µM (inactive) | 10.9 µM (inactive) | 14.9 µM (inactive) | 6.85 µM (inactive) | 5.83 µM (inactive) | 15.4 µM (inactive) | 11.4 µM (inactive) | 5.13 µM (inactive) | 6.24 µM (inactive) | 3.83 µM (inactive) | 16.7 µM (inactive) | 5.08 µM (inactive) | 11.4 µM (inactive) | 2.96 |
| O=C1c2ccccc2C2=Cc3ccccc3C(O)N12 (stereo not drawn) | 37.1 µM (inactive) | 25.8 µM (inactive) | > 100 µM (inactive) | > 100 µM (inactive) | > 100 µM (inactive) | 18.1 µM (inactive) | > 100 µM (inactive) | 24.9 µM (inactive) | > 100 µM (inactive) | > 100 µM (inactive) | > 100 µM (inactive) | 38.6 µM (inactive) | > 100 µM (inactive) | 21.7 µM (inactive) | > 100 µM (inactive) | > 100 µM (inactive) | 70.5 µM (inactive) | 55.3 µM (inactive) | > 100 |
| c1ccc(C2C(=P(c3ccccc3)(c3ccccc3)c3ccccc3)P=PC2[P+](c2ccccc2)(c2ccccc2)c2ccccc2)cc1.c1ccc([B-](c2ccccc2)(c2ccccc2)c2ccccc2)cc1 (stereo not drawn) | 1.85 µM (inactive) | 0.966 µM (active) | 1.12 µM (inactive) | 0.507 µM (active) | 0.202 µM (active) | 18.8 µM (inactive) | 0.818 µM (active) | 2.44 µM (inactive) | 0.354 µM (active) | 0.767 µM (active) | 1.78 µM (inactive) | 0.333 µM (active) | 0.252 µM (active) | 0.424 µM (active) | 0.0841 µM (active) | 0.39 µM (active) | 0.191 µM (active) | 0.278 µM (active) | 28.1 |
| NCCCNC1(c2cc3ccccc3s2)CCCCC1 | 2.12 µM (inactive) | 1.77 µM (inactive) | 1.64 µM (inactive) | 10.5 µM (inactive) | 1.84 µM (inactive) | 1.93 µM (inactive) | 2.72 µM (inactive) | 1.92 µM (inactive) | 2.95 µM (inactive) | 4.55 µM (inactive) | 1.88 µM (inactive) | 2.31 µM (inactive) | 9.62 µM (inactive) | 3.21 µM (inactive) | 2.06 µM (inactive) | 3.86 µM (inactive) | 2.58 µM (inactive) | 1.91 µM (inactive) | 4.49 |
